# In patent US20230372542A1, “COMPOSITION AND METHODS FOR MODULATING TCF4 GENE EXPESSION AND TREATING PITT HOPKINS SYNDROME” (The Regents of the University of California, priority 2020, published 2023):
# Legend:
# Type in all cases: cell-based, human
# [1] = system: NPCs; assay: p16INK4a+ (senescent) cells in NPCs treated with CHIR99021; conditions: PTHS NPCs
# Description: For immunofluorescence labeling of NPCs, these cells were seeded at a density of 50,000 cells per well of a LabTek II 8-well chambered slide. When cells reached 50% confluency, they were fixed and processed for immunostaining in the same manner as described for iPSC colonies, with the following primary antibodies: rabbit anti-TCF4 (Abcam; ab217668; 1:1000); and chicken anti-vimentin (VIM) (Abcam; ab22651; 1:2000). NPCs were also stained to detect senescence associated P-galactosidase (SA-P-gal), using the CellEvent™ Senescence Green Detection Kit (Thermo Fisher Scientific; C10850) after antigen retrieval as described above. The same method described above for counting weakly and strongly stained SOX2+ cells after p16^INK4a co-staining was applied to NPCs.
# (§1) Wnt signaling manipulation. For manipulating the Wnt/β-catenin signaling pathway in NPCs, 200,000 cells were seeded on a 6-well plate, followed by treatment with specific agonist CHIR99021 (1 μM) for 4 days. Controls were treated with DMSO (CHIR diluent) at the same concentration and for the same duration. […] In all cases, treated cells were assayed to measure activity of the Wnt pathway via transfection with the TOP-Flash plasmids described herein. For all experiments, 3 biological replicates were used per subject line, and similar results were obtained in at least 3 independent experiments.
# [2] = system: NPCs; assay: NPC proliferation (live cell count, EdU) after Wnt signaling manipulation
# Description: Proliferation and apoptosis assays.
# as §1, with “herein.” for “herein. For all experiments, 3 biological replicates were used per subject line, and similar results were obtained in at least 3 independent experiments.”
# [3] = system: NPCs; assay: RT-qPCR gene expression in NPCs after Wnt signaling manipulation
# Description: Real time quantitative PCR. Total RNA was extracted using RNeasy Mini Plus kit (Qiagen), followed by DNase I treatment on the column, as per the manufacturer's recommendations. Two and a half micrograms of total RNA were reverse transcribed into cDNA using the Superscript III First-Strand Reverse Transcription System (Thermo Fisher Scientific). Real-time quantitative PCR (RT-qPCR) was performed using pre-validated FAM-MGB TaqMan probes (Thermo Fisher Scientific) and the TaqMan universal master mix II without UNG (Thermo Fisher Scientific) on a CFX Connect Real Time PCR detection system (Bio-Rad), with the following cycling parameters: 94° C. for 3 min, followed by 40 cycles of 94° C. for 30 s and 68° C. for 1 min. Amplification and denaturation curves for all probes were analyzed to verify amplification of just one amplicon. All RT-qPCR analyses were conducted using RNA extracted from at least 3 independent biological samples per subject/condition, and normalized to the following endogenous control genes (TBP, ACTB, and GAPDH). Relative expression was calculated using the traditional ΔΔCt method.
# as §1, with “herein.” for “herein. For all experiments, 3 biological replicates were used per subject line, and similar results were obtained in at least 3 independent experiments.”
# [4] = PTHS NPCs in 2D culture, CHIR (FIG. 16K)
smiles,measurement,setting,value
Cc1c[nH]c(-c2cnc(NCCNc3ccc(C#N)cn3)nc2-c2ccc(Cl)cc2Cl)n1 [CHIR99021],percentage of p16INK4a senescent cells,[1],decreased the percentage
same,proliferation rates,"[2]; PTHS NPCs, CHIR99021 1 μM, 4 days (FIGS. 9G-H)",rescued the proliferation rates
same,proliferation,"[2]; parent NPCs in 2D culture, CHIR (FIGS. 9G-H)",does not lead to increased proliferation
same,PCDH15 expression,"[3]; NPCs, CHIR99021 (FIG. 16N)",further reduces its expression
same,expression of TCF4,[3]; [4],increased
same,expression of TCF4 downstream targets (GADD45G),[3]; [4],increased
same,expression of pro-proliferative gene HES1,"[3]; PTHS NPCs, CHIR99021 (FIG. 9J)",increased the expression
same,expression of proneural gene ASCL1,"[3]; PTHS NPCs, CHIR99021 (FIG. 9J)",increased the expression
same,expression of proneural gene NEUROD1,"[3]; PTHS NPCs, CHIR99021 (FIG. 9J)",increased the expression
same,SOX3 expression,"[3]; PTHS progenitors, CHIR99021 (FIG. 10F)",increased SOX3 expression
